Data set [1] can be described thus: The drug is tested on Bacteroides fragilis strain: ATCC43859 for biotransformation. The drug concentrations were measured before and after a 12-h incubation by liquid-chromatography-coupled mass spectrometry (LC–MS). To be noted: 2 µM.
Data set [2] can be described thus: The drug is tested on Bacteroides sp. WH2 strain: WH2 for biotransformation. The drug concentrations were measured before and after a 12-h incubation by liquid-chromatography-coupled mass spectrometry (LC–MS). To be noted: bacteroides sp. wh2, 12 h, 2 µM.
Data set [3] in a line: The drug is tested on Bacteroides caccae strain: ATCC43185 for biotransformation. The drug concentrations were measured before and after a 12-h incubation by liquid-chromatography-coupled mass spectrometry (LC–MS). To be noted: 2 µM.
The nature of data set [4]: The drug is tested on Collinsella intestinalis strain: DSM13280 for biotransformation. The drug concentrations were measured before and after a 12-h incubation by liquid-chromatography-coupled mass spectrometry (LC–MS). To be noted: 2 µM.
The nature of data set [5]: The drug is tested on Enterococcus faecalis strain: V583 for biotransformation. The drug concentrations were measured before and after a 12-h incubation by liquid-chromatography-coupled mass spectrometry (LC–MS). The following applies: 2 µM.
The conditions of data set [6]: bacteroides eggerthii, 12 h, 2 µM.
Description: The drug is tested on Bacteroides eggerthii strain: DSM20697 for biotransformation. The drug concentrations were measured before and after a 12-h incubation by liquid-chromatography-coupled mass spectrometry (LC–MS)
Data set [7] in a line: The drug is tested on Clostridium symbiosum strain: ATCC14940 for biotransformation. The drug concentrations were measured before and after a 12-h incubation by liquid-chromatography-coupled mass spectrometry (LC–MS). The following applies: 2 µM.
The nature of data set [8]: The drug is tested on Anaerotruncus colihominis strain: DSM17241 for biotransformation. The drug concentrations were measured before and after a 12-h incubation by liquid-chromatography-coupled mass spectrometry (LC–MS). The following applies: 2 µM.
The conditions of data set [9]: bacteroides thetaiotaomicron, 12 h, 2 µM.
Description: The drug is tested on Bacteroides thetaiotaomicron strain: VPI-5482 for biotransformation. The drug concentrations were measured before and after a 12-h incubation by liquid-chromatography-coupled mass spectrometry (LC–MS)
For data set [10] the following is noted: limosilactobacillus reuteri cf48-3a, 12 h, 2 µM.
Description: The drug is tested on Lactobacillus reuteri CF48-3A strain: BEI HM-102 for biotransformation. The drug concentrations were measured before and after a 12-h incubation by liquid-chromatography-coupled mass spectrometry (LC–MS)
A short description of data set [11]: The drug is tested on Bacteroides finegoldii strain: DSM17565 for biotransformation. The drug concentrations were measured before and after a 12-h incubation by liquid-chromatography-coupled mass spectrometry (LC–MS). To be noted: 2 µM.
Data set [12] is described as follows: The drug is tested on Bacteroides uniformis strain: ATCC8492 for biotransformation. The drug concentrations were measured before and after a 12-h incubation by liquid-chromatography-coupled mass spectrometry (LC–MS). The following applies: 2 µM.
The nature of data set [13]: The drug is tested on Subdoligranulum variabile strain: DSM15176 for biotransformation. The drug concentrations were measured before and after a 12-h incubation by liquid-chromatography-coupled mass spectrometry (LC–MS). The following applies: 2 µM.
The conditions of data set [14]: bacteroides thetaiotaomicron, 12 h, 2 µM. The source holds these as a separate data set.
Description: The drug is tested on Bacteroides thetaiotaomicron strain: 7330 for biotransformation. The drug concentrations were measured before and after a 12-h incubation by liquid-chromatography-coupled mass spectrometry (LC–MS)
The conditions of data set [15]: bacteroides fragilis, 12 h, 2 µM.
Description: The drug is tested on Bacteroides fragilis strain: DS-208 for biotransformation. The drug concentrations were measured before and after a 12-h incubation by liquid-chromatography-coupled mass spectrometry (LC–MS)
Data set [16] is described as follows: The drug is tested on Anaerococcus hydrogenalis strain: DSM7454 for biotransformation. The drug concentrations were measured before and after a 12-h incubation by liquid-chromatography-coupled mass spectrometry (LC–MS). The following applies: 2 µM.
For data set [17] the following is noted: segatella copri, 12 h, 2 µM.
Description: The drug is tested on Prevotella copri strain: DSM18205 for biotransformation. The drug concentrations were measured before and after a 12-h incubation by liquid-chromatography-coupled mass spectrometry (LC–MS)
The nature of data set [18]: The drug is tested on Parabacteroides merdae strain: ATCC43184 for biotransformation. The drug concentrations were measured before and after a 12-h incubation by liquid-chromatography-coupled mass spectrometry (LC–MS). To be noted: 2 µM.
Data set [19] can be described thus: The drug is tested on Escherichia coli strain: BW25113 for biotransformation. The drug concentrations were measured before and after a 12-h incubation by liquid-chromatography-coupled mass spectrometry (LC–MS). The following applies: 2 µM.
A short description of data set [20]: The drug is tested on Providencia rettgeri strain: DSM1131 for biotransformation. The drug concentrations were measured before and after a 12-h incubation by liquid-chromatography-coupled mass spectrometry (LC–MS). The data set is classed as ADME. Set-up: dose 2 uM, timepoint 0 vs 12 hours. The following applies: 2 µM.

On to `O=C1CC2(CCCC2)CC(=O)N1CCCCN1CCN(c2ncccn2)CC1` [BUSPIRONE], for which the “Bacterial Biotransformation” value in data set [1], in [2], in data set [3], in data set [4], in data set [5] and in data set [6] was “Compound NOT metabolized” throughout. The “Bacterial Biotransformation” value in data set [7], in data set [8], in data set [9], in data set [10], in [11] and in [12] was “Compound NOT metabolized” each time. In addition, the “Bacterial Biotransformation” value in [13], in data set [14], in [15], in [16], in data set [17] and in data set [18] was “Compound NOT metabolized” each time.

As to `Nc1nc2ccc(OC(F)(F)F)cc2s1` [RILUZOLE], the “Bacterial Biotransformation” value in data set [1] is reported as “Compound metabolized”; in [2], “Compound NOT metabolized”; in data set [3], “Compound NOT metabolized”; in data set [4], “Compound NOT metabolized”; in data set [5] it was “Compound NOT metabolized”; in data set [6], “Compound metabolized”. Also, the “Bacterial Biotransformation” value in [7] is given as “Compound NOT metabolized”; in data set [8] it was “Compound NOT metabolized”; in data set [9] it was “Compound metabolized”; in data set [10] it was “Compound NOT metabolized”; in data set [11], “Compound NOT metabolized”; in data set [12], “Compound metabolized”. The “Bacterial Biotransformation” value in data set [13] is “Compound NOT metabolized”; in data set [14], “Compound metabolized”; in data set [15], “Compound metabolized”; in data set [16] it was “Compound NOT metabolized”; in data set [17], “Compound NOT metabolized”; in [18], “Compound NOT metabolized”.

As for `CC(C)c1nc(CN(C)C(=O)N[C@H](C(=O)N[C@@H](Cc2ccccc2)C[C@H](O)[C@H](Cc2ccccc2)NC(=O)OCc2cncs2)C(C)C)cs1` [RITONAVIR], the “Bacterial Biotransformation” value in [2] is recorded as “Compound NOT metabolized”; in data set [3], “Compound NOT metabolized”; in data set [4], “Compound NOT metabolized”; in data set [5], “Compound NOT metabolized”; in [6], “Compound metabolized”; in data set [19] it was “Compound metabolized”. For the same molecule, the “Bacterial Biotransformation” value in data set [7], in data set [8], in data set [20], in data set [9], in [10] and in data set [11] was “Compound NOT metabolized” in each case. The “Bacterial Biotransformation” value is listed as “Compound metabolized” in data set [12]; “Compound NOT metabolized” in data set [13]; “Compound NOT metabolized” in [14]; “Compound metabolized” in data set [15]; “Compound NOT metabolized” in data set [16]; “Compound NOT metabolized” in data set [17]. In addition, the “Bacterial Biotransformation” value in [18] is given as “Compound NOT metabolized”.

In the case of `CN(C)CCc1c[nH]c2ccc(Cn3cncn3)cc12.O=C(O)c1ccccc1` [RIZATRIPTAN BENZOATE], the “Bacterial Biotransformation” value in data set [1], in [2], in data set [3], in data set [4], in data set [5] and in [6] was “Compound NOT metabolized” each time. The “Bacterial Biotransformation” value in [7], in data set [8], in [20], in data set [11], in data set [13] and in data set [16] was “Compound NOT metabolized” throughout. In data set [17], the “Bacterial Biotransformation” value is “Compound NOT metabolized”.

For `COc1cc(C(=O)NCc2ccc(OCCN(C)C)cc2)cc(OC)c1OC` [TRIMETHOBENZAMIDE], the “Bacterial Biotransformation” value in [1], in data set [2], in data set [3], in data set [4], in data set [5] and in data set [6] was “Compound NOT metabolized” in each case. The “Bacterial Biotransformation” value in [7], in data set [8], in [9], in data set [10], in data set [11] and in data set [12] was “Compound NOT metabolized” each time. Moreover, the “Bacterial Biotransformation” value in data set [13], in [14], in data set [15], in [16], in [17] and in [18] was “Compound NOT metabolized” throughout.

For `N#Cc1ccc2[nH]cc(CCCCN3CCN(c4ccc5oc(C(N)=O)cc5c4)CC3)c2c1` [VILAZODONE], the “Bacterial Biotransformation” value was “Compound metabolized” in data set [1]; “Compound metabolized” in data set [2]; “Compound metabolized” in data set [3]; “Compound NOT metabolized” in data set [4]; “Compound metabolized” in data set [5]; “Compound metabolized” in [6]. The “Bacterial Biotransformation” value in data set [7] is given as “Compound NOT metabolized”; in data set [8] it was “Compound NOT metabolized”; in data set [9] it was “Compound metabolized”; in data set [10], “Compound NOT metabolized”; in data set [12] it was “Compound metabolized”; in data set [13], “Compound NOT metabolized”. Besides, the “Bacterial Biotransformation” value in data set [14] is listed as “Compound metabolized”; in data set [15], “Compound metabolized”; in data set [16] it was “Compound NOT metabolized”; in [17] it was “Compound metabolized”; in [18], “Compound metabolized”.

The record behind these values is ChEMBL document CHEMBL5303573, “Mapping human microbiome drug metabolism by gut bacteria and their genes” (Nature, 2019).
